The results in this text go back to patent publication US8603527B2, “Pharmaceutical formulations of a substituted diaminopurine” (Signal Pharmaceuticals, LLC, priority 2010, dated 2013).

Data set [1] is described as follows: Oral developmental toxicity study in the rat. Type of data set: in vivo. Particulars: female, CD [Crl:CD(SD)], rat, in vivo, oral; rats; read-out: NOAEL for maternal toxicity.
Protocol: (§1) Compound I was administered orally to four groups of 25 time-mated female CD®[Crl:CD®(SD)] rats/group at dose levels of 0 (vehicle, 1.0% carboxymethylcellulose/0.25% TWEEN® 80), 25, 50, or 100 mg/kg/day from Gestation Days (GD) 6 to 17. In addition, four groups of five time-mated females/group served as toxicokinetic (TK) animals and received the vehicle or test article in the same manner as the main study groups.
In data set [2] the test system is time-mated female CD [Crl:CD(SD)] rats. The data set can be described thus: Oral developmental toxicity study in the rat. Format: in vivo.
Protocol: as §1
For data set [3], the system named is healthy subjects. The data set can be described thus: Safety in the gender, age and food study in healthy subjects. Type of data set: in vivo, human. As to conditions: 100 mg single oral dose, all age groups, each gender, fasting and fed. The method, then:
Group 1 (Healthy Females) and Group 3 (Elderly Males and Females): Subjects were screened within 21 days of dosing and eligible subjects were admitted to the study center on Day −1 (i.e., at least 12 hours predose) for baseline assessments and confirmation of eligibility. A single oral dose of 100 mg Compound I was administered on Day 1 following an overnight fast of at least 8 hours. Subjects were discharged from the study center the morning of Day 3 upon completion of study procedures and returned to the study center for PK blood draws and safety assessments on Days 4, 5, and 6. The end-of-study (EOS) evaluation also occurred on Day 6. Subjects returned to the study center for a follow-up visit between 7 and 10 days from EOS. Serial blood samples were collected predose and up to 120 hours postdose for the determination of plasma Compound I concentrations. Safety was monitored throughout the study; safety evaluations included AE reporting, physical examinations, vital sign measurements, ECGs, and clinical laboratory safety tests. All AEs and concomitant medications were assessed and recorded throughout the study from the time the ICF was signed through follow-up.
Group 2 (Healthy Males): Subjects in Group 2 participated in this portion of the study to evaluate food effect using a randomized, open-label, single dose, 2-period (Period 1 and Period 2), 2-sequence, 2-way crossover design. […]

Data set [4] in a line: Oral developmental toxicity study in the rabbit. As to conditions: female, New Zealand White Hra:(NZW)SPF, rabbit, in vivo, oral.
Description: (§2) Additionally, four groups of five animals/group served as toxicokinetic (TK) animals and received the vehicle or test article in the same manner and dose levels as the main study groups. All time-mated females arrived at the laboratory on GD 0, the day evidence of mating was observed.
Data set [5] has as its system time-mated female New Zealand White Hra:(NZW)SPF rabbits. The data set can be described thus: Oral developmental toxicity study in the rabbit. As to conditions: rabbits.
Description: as §2

One may read the NOAEL as the highest dose or exposure tested at which no adverse effect was seen.

Consider `O[C@H]1CC[C@H](Nc2ncc3nc(Nc4c(F)cc(F)cc4F)n([C@H]4CCOC4)c3n2)CC1` [Compound I, 4-((9-((3S)-tetrahydro-3-furanyl)-8-((2,4,6-trifluorophenyl)amino)-9H-purin-2-yl)amino)-trans-cyclohexanol], for which the results for the NOAEL in data set [1] and in data set [4] were 25 mg/kg/day and 20 mg/kg/day, respectively. Moreover, the “doses at which developmental effects were observed” value is above 25 mg/kg/day in data set [2] (female, CD [Crl:CD(SD)], rat, in vivo) and 40 mg/kg/day in data set [5]. Moreover, the teratogenicity result in data set [2] (rat, in vivo) is “teratogenic”; in data set [5], “teratogenic”. Further, in data set [2] (rat, in vivo, 25 mg/kg/day), the maternal toxicity entry is “No maternal toxicity”. For the same molecule, the “incidence of fetal malformations involving heart and aortic vessels, ribs, and/or vertebrae” value in data set [2] (rat, in vivo, 100 mg/kg/day) is “slight increase”. For the same molecule, in data set [2] (rat, in vivo, 100 mg/kg/day), the “post implantation loss index” value is recorded as “increased”. For the same molecule, the “fetal weights lower than controls” value in data set [2] (rat, in vivo, po, 25 mg/kg/day) is “about 6%”. In addition, the “fetal body weights lower than controls” value was “about 11%” in data set [2] (rat, in vivo, po, 50 mg/kg/day) and around 27% in data set [2] (rat, in vivo, po, 100 mg/kg/day). Further, the “NOEL for developmental toxicity” value was determined as 25 mg/kg/day in data set [2] (rats) and 20 mg/kg/day in data set [5]. In addition, the “lowest observed effect level (LOEL), developmental effects” value in data set [2] (rats) turned out to be 25 mg/kg/day. In addition, the tolerability result in data set [3] is listed as “well tolerated”. The “litters with viable fetuses for evaluation on GD 29” value amounted to 19 in data set [5] (10 mg/kg/day), 20 in data set [5] (20 mg/kg/day) and 10 in data set [5] (40 mg/kg/day). For the same molecule, the “main study pregnancy index” value in data set [5] (10 mg/kg/day) was 95%; in data set [5] (20 mg/kg/day), 100%; in data set [5] (40 mg/kg/day), 95%. Also, in data set [5] (40 mg/kg/day, GD 29, controls 25%), the “litters containing one or more fetuses with a malformation” value is on record as 70%.
